Columns and labels:
GST-tagged FAK = target: T1, GST-tagged FAK (Homo sapiens, UniProt Q05397); test: Biochemical assay for FAK activity, Assay 1: phosphorylation of peptide substrate with radio-labeled ATP; conditions: 5 μM ATP, 30 min pre-incubation, read-out: Assay 1 FAK TRF PXC50 (converted)
T1 construct: purchased Invitrogen PV3832
Procedure: GST-tagged (glutathione S-transferase-tagged) FAK was purchased from Invitrogen (PV3832) (www.invitrogen.com). […] To measure inhibitors of FAK, compounds were first prepared as a 10× stock in 10% DMSO. […] A 6-nM GST-FAK solution was prepared in 1.1× reaction buffer containing 44 mM HEPES, pH=7.2, 11 mM MgCl2, 2.2 mM MnCl2, 1.1 mM DTT and 0.011% Tween-20. Then, 20 μL of the 6 nM GST-FAK solution were pre-incubated with the compounds for 30 min at room temperature. […] The reaction was allowed to proceed for 90 min before being quenched with 40 μL of 1% H3PO4. A portion of the reaction mixture (60 μL) was transferred to a phospho-cellulose filter plate (Millipore; www.millipore.com, MAPHNOB50) and incubated for 20 minutes. The plate was filtrated, washed three times using 150 μL of 0.5% H3PO4 and dried at 50° C. for 30 min. After the addition of 60 μL Microscint-20 to the plate, radioactivity was measured using a TopCount (PerkinElmer; www.PerkinElmer.com).

[1] = target: T2, Full length Human FAK (Flag-His-TEV-FAK1) (Homo sapiens, UniProt Q05397); test: Biochemical assay for FAK activity, Assay 2: LANCE Ultra ULight peptide phosphorylation, 665 nm/615 nm ratio; conditions: Flag-His-TEV-FAK1, 10 μM ATP, 30 min pre-incubation; read-out: Assay 2 FAK H 31284A TRF PXC50 (converted)
T2 construct: Full length Human FAK was expressed using baculovirus in Sf9 cells; made in house; host or cells: baculovirus in Sf9 cells
T2 sequence (Q05397 whole entry): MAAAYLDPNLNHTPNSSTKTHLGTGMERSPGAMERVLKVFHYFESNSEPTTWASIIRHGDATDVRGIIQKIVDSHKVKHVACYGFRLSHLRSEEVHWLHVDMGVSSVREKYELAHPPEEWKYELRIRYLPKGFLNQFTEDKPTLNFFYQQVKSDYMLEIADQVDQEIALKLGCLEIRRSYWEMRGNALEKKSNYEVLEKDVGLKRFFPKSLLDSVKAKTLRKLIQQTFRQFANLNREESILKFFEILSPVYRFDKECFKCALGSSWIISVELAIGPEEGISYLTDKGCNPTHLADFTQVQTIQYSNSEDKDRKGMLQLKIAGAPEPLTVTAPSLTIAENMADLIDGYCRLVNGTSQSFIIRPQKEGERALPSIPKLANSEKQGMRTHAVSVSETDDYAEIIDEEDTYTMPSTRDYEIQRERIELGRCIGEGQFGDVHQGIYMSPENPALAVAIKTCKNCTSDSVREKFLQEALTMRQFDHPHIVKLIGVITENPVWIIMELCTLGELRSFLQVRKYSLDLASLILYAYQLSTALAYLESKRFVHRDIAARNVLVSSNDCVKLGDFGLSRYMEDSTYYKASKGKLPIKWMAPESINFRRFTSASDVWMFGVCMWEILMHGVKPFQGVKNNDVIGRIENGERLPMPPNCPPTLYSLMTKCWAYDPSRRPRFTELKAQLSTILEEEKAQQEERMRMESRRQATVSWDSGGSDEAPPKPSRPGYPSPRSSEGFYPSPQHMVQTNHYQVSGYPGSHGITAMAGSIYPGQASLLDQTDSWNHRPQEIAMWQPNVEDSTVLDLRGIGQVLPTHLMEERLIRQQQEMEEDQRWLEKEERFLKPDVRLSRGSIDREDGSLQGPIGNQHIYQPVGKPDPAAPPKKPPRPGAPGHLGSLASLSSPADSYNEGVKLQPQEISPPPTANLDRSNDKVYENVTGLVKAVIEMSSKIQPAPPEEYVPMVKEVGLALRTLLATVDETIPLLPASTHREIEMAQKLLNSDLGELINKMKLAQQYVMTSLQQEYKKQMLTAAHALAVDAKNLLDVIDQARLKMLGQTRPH

T1 sequence (Q05397 whole entry): as above

Row | IC50 (GST-tagged FAK) [nM] | IC50 [1] [nM] | Structure (SMILES)
1 | 2 | 31.6 | CNC(=O)c1cc(N2CCN(CCO)CC2)ccc1Nc1cc(Cl)ncc1Cl [Example 66, 2-[(2,5-Dichloro-4-pyridinyl)amino]-5-[4-(2-hydroxyethyl)-1-piperazinyl]-N-methylbenzamide]
2 | 63.1 | 5.01 | CCn1nccc1Nc1cc(Nc2ccc(N3CCN(CCO)CC3)cc2C(=O)NC)c(Cl)cn1 [Example 67, 2-({5-Chloro-2-[(1-ethyl-1H-pyrazol-5-yl)amino]-4-pyridinyl}amino)-5-[4-(2-hydroxyethyl)-1-piperazinyl]-N-methylbenzamide]

— US20140155410A1 (GlaxoSmithKline LLC, priority 2008, published 2014)
